According to patent US20230183193A1, “4-DIFLUOROMETHYL BENZOYL AMIDES WITH HERBICIDAL ACTION” (BAYER CROPSCIENCE AKTIENGESELLSCHAFT, priority 2017, published 2023):

Experiments:
Type in all cases: in vivo
Matricaria inodora = experiment: Pre-emergence herbicidal action, MATIN; conditions: dosage 320 g/ha, scored visually after 3 weeks vs untreated controls
Procedure, shortened: (§1)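 Percent herbicidal activity rated by eye 3 weeks after pre-emergence soil-surface application, compared with untreated pots. Seeds sat under sandy loam; sprays carried 0.2% wetting agent.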

Viola tricolor [1] = experiment: Post-emergence herbicidal action, VIOTR; conditions: 80 g/ha, Table D
Procedure, shortened: (§2)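 Greenhouse-grown weeds in sandy loam, treated at the one-leaf stage 2 to 3 weeks after sowing with WP or EC formulations sprayed as aqueous suspension/emulsion at 600 to […] water plus 0.2% wetting agent. Visual scoring after about 3 weeks versus untreated controls, 0% (like control) to 100% (plants dead).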

Setaria viridis [2] = experiment: Post-emergence herbicidal action, SETVI; conditions: 80 g/ha, Table C
Procedure, shortened: as §2

Abutilon theophrasti [3] = experiment: Post-emergence herbicidal action, ABUTH; conditions: 80 g/ha, Table D
Procedure, shortened: as §2

Abutilon theophrasti [4] = experiment: Pre-emergence herbicidal action, ABUTH; conditions: dosage 320 g/ha, scored visually after 3 weeks vs untreated controls
Procedure, shortened: as §1

Amaranthus retroflexus [5] = experiment: Pre-emergence herbicidal action, AMARE; conditions: dosage 320 g/ha, scored visually after 3 weeks vs untreated controls
Procedure, shortened: as §1

Amaranthus retroflexus [6] = experiment: Post-emergence herbicidal action, AMARE; conditions: 80 g/ha, Table D
Procedure, shortened: as §2

Avena fatua [7] = experiment: Post-emergence herbicidal action, AVEFA; conditions: 80 g/ha, Table C
Experimental: (§3) Seeds of monocotyledonous and dicotyledonous weed and crop plants are laid out in sandy loam soil in wood-fiber pots, covered with soil and cultivated in a greenhouse under good growth conditions. 2 to 3 weeks after sowing, the test plants are treated at the one-leaf stage. The compounds of the invention, formulated in the form of wettable powders (WP) or as emulsion concentrates (EC), are then sprayed onto the green parts of the plants in the form of an aqueous suspension or emulsion at a water application rate equating to […], with addition of 0.2% wetting agent. After the test plants have been left to stand in the greenhouse under optimal growth conditions for about 3 weeks, the action of the preparations is assessed visually in comparison to untreated controls (herbicidal action in percent (%): 100% activity=the plants have died, 0% activity=like control plants). […] At the same time, inventive compounds leave Gramineae crops such as barley, wheat, rye, millet/sorghum, corn or rice virtually undamaged when applied post-emergence, even at high active compound dosages. In addition, some substances are also harmless to dicotyledonous crops such as soya, cotton, oilseed rape, sugar beet or potatoes. Some of the compounds according to the invention have high selectivity and are therefore suitable for controlling unwanted vegetation in agricultural crops by the post-emergence method. The data of Tables C and D below illustrate, in an exemplary manner, the […] herbicidal action of the compounds according to the invention, the herbicidal activity being stated in percent.
(§4) For comparison, the herbicidal activity of numerous compounds according to the invention was tested with the structurally closest compounds known from the documents WO 2011/035874, WO 2012/028579 and WO 2012/126932, by the pre- and post-emergence method.

ECHCG = experiment: Post-emergence herbicidal action, ECHCG; conditions: 80 g/ha, Table C
Procedure, shortened: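 Weed and crop plants grown in sandy loam in the greenhouse, treated at the one-leaf stage 2–3 weeks after sowing. Damage scored visually after about 3 weeks vs untreated controls (0% = control, 100% = dead).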

Alopecurus myosuroides [8] = experiment: Pre-emergence herbicidal action, ALOMY; conditions: dosage 320 g/ha, scored visually after 3 weeks vs untreated controls
Procedure, shortened: as §1

Avena fatua [9] = experiment: Pre-emergence herbicidal action, AVEFA; conditions: dosage 320 g/ha, scored visually after 3 weeks vs untreated controls
Procedure, shortened: as §1

Pharbitis purpureum = experiment: Post-emergence herbicidal action, PHBPU; conditions: 80 g/ha, Table D
Procedure, shortened: as §2

Viola tricolor [10] = experiment: Pre-emergence herbicidal action, VIOTR; conditions: dosage 320 g/ha, scored visually after 3 weeks vs untreated controls
Procedure, shortened: as §1

Alopecurus myosuroides [11] = experiment: Post-emergence herbicidal action, ALOMY; conditions: 80 g/ha, Table C
Experimental: as §3, §4

Cyperus serotinus = experiment: Pre-emergence herbicidal action, CYPES; conditions: dosage 320 g/ha, scored visually after 3 weeks vs untreated controls
Procedure, shortened: as §1

Setaria viridis [12] = experiment: Pre-emergence herbicidal action, SETVI; conditions: dosage 320 g/ha, scored visually after 3 weeks vs untreated controls
Procedure, shortened: as §1

Stellaria media [13] = experiment: Post-emergence herbicidal action, STEME; conditions: 80 g/ha, Table D
Procedure, shortened: as §2

Stellaria media [14] = experiment: Pre-emergence herbicidal action, STEME; conditions: dosage 320 g/ha, scored visually after 3 weeks vs untreated controls
Procedure, shortened: as §1

CCn1nnnc1NC(=O)c1ccc(C(F)F)c([S+](C)[O-])c1C (stereo not drawn) [Example 2-2]
90%: herbicidal activity ABUTH (Abutilon theophrasti [3]) | herbicidal activity AVEFA (Avena fatua [7]) | Herbicidal activity ECHCG (ECHCG) | Herbicidal activity PHBPU (Pharbitis purpureum) | herbicidal activity ALOMY (Alopecurus myosuroides [11]) | herbicidal activity CYPES (Cyperus serotinus)
80%: herbicidal activity AMARE (Amaranthus retroflexus [6])
100%: herbicidal activity MATIN (Matricaria inodora) | herbicidal activity VIOTR (Viola tricolor [1]) | herbicidal activity SETVI (Setaria viridis [2]) | herbicidal activity ABUTH (Abutilon theophrasti [4]) | herbicidal activity AMARE (Amaranthus retroflexus [5]) | herbicidal activity ALOMY (Alopecurus myosuroides [8]) | herbicidal activity AVEFA (Avena fatua [9]) | herbicidal activity VIOTR (Viola tricolor [10]) | herbicidal activity SETVI (Setaria viridis [12]) | Herbicidal activity STEME (Stellaria media [13])

CCS(=O)(=O)c1c(C(F)F)ccc(C(=O)Nc2nnnn2C)c1I [Example 1-78]
90%: herbicidal activity VIOTR (Viola tricolor [1]) | herbicidal activity ALOMY (Alopecurus myosuroides [11])
80%: herbicidal activity ABUTH (Abutilon theophrasti [3]) | herbicidal activity AVEFA (Avena fatua [7])
100%: herbicidal activity MATIN (Matricaria inodora) | herbicidal activity SETVI (Setaria viridis [2]) | herbicidal activity ABUTH (Abutilon theophrasti [4]) | herbicidal activity AMARE (Amaranthus retroflexus [5]) | herbicidal activity AMARE (Amaranthus retroflexus [6]) | Herbicidal activity ECHCG (ECHCG) | herbicidal activity ALOMY (Alopecurus myosuroides [8]) | herbicidal activity AVEFA (Avena fatua [9]) | Herbicidal activity PHBPU (Pharbitis purpureum) | herbicidal activity VIOTR (Viola tricolor [10]) | herbicidal activity CYPES (Cyperus serotinus) | herbicidal activity SETVI (Setaria viridis [12]) | Herbicidal activity STEME (Stellaria media [13])

CCSc1c(C(F)F)ccc(C(=O)Nc2ncnn2C)c1Br [Example 4-64]
90%: herbicidal activity ALOMY (Alopecurus myosuroides [8])
100%: herbicidal activity MATIN (Matricaria inodora) | herbicidal activity VIOTR (Viola tricolor [1]) | herbicidal activity SETVI (Setaria viridis [2]) | herbicidal activity ABUTH (Abutilon theophrasti [3]) | herbicidal activity ABUTH (Abutilon theophrasti [4]) | herbicidal activity AMARE (Amaranthus retroflexus [5]) | herbicidal activity AMARE (Amaranthus retroflexus [6]) | herbicidal activity AVEFA (Avena fatua [7]) | Herbicidal activity ECHCG (ECHCG) | herbicidal activity AVEFA (Avena fatua [9]) | Herbicidal activity PHBPU (Pharbitis purpureum) | herbicidal activity VIOTR (Viola tricolor [10]) | herbicidal activity ALOMY (Alopecurus myosuroides [11]) | Herbicidal activity STEME (Stellaria media [14]) | herbicidal activity SETVI (Setaria viridis [12]) | Herbicidal activity STEME (Stellaria media [13])

CCCn1nnnc1NC(=O)c1ccc(C(F)F)c(SC)c1C [Example 3-1]
100%: herbicidal activity MATIN (Matricaria inodora) | herbicidal activity VIOTR (Viola tricolor [1]) | herbicidal activity SETVI (Setaria viridis [2]) | herbicidal activity ABUTH (Abutilon theophrasti [3]) | herbicidal activity ABUTH (Abutilon theophrasti [4]) | herbicidal activity AMARE (Amaranthus retroflexus [5]) | herbicidal activity AMARE (Amaranthus retroflexus [6]) | herbicidal activity AVEFA (Avena fatua [7]) | Herbicidal activity ECHCG (ECHCG) | herbicidal activity ALOMY (Alopecurus myosuroides [8]) | herbicidal activity AVEFA (Avena fatua [9]) | herbicidal activity VIOTR (Viola tricolor [10]) | Herbicidal activity STEME (Stellaria media [14]) | herbicidal activity SETVI (Setaria viridis [12]) | Herbicidal activity STEME (Stellaria media [13])
90%: Herbicidal activity PHBPU (Pharbitis purpureum) | herbicidal activity ALOMY (Alopecurus myosuroides [11])

CCS(=O)(=O)c1c(C(F)F)ccc(C(=O)Nc2nnc(C)o2)c1Br [Example 7-64]
100%: herbicidal activity MATIN (Matricaria inodora) | herbicidal activity SETVI (Setaria viridis [2]) | herbicidal activity ABUTH (Abutilon theophrasti [3]) | herbicidal activity ABUTH (Abutilon theophrasti [4]) | herbicidal activity AMARE (Amaranthus retroflexus [6]) | herbicidal activity AVEFA (Avena fatua [7]) | Herbicidal activity ECHCG (ECHCG) | herbicidal activity ALOMY (Alopecurus myosuroides [8]) | herbicidal activity AVEFA (Avena fatua [9]) | Herbicidal activity PHBPU (Pharbitis purpureum) | herbicidal activity VIOTR (Viola tricolor [10]) | herbicidal activity CYPES (Cyperus serotinus) | Herbicidal activity STEME (Stellaria media [14]) | herbicidal activity SETVI (Setaria viridis [12])
90%: herbicidal activity VIOTR (Viola tricolor [1]) | herbicidal activity ALOMY (Alopecurus myosuroides [11]) | Herbicidal activity STEME (Stellaria media [13])

CCSc1c(C(F)F)ccc(C(=O)Nc2nnc(C)o2)c1Cl [Example 7-50]
90%: herbicidal activity MATIN (Matricaria inodora) | herbicidal activity AMARE (Amaranthus retroflexus [5]) | herbicidal activity AMARE (Amaranthus retroflexus [6]) | herbicidal activity AVEFA (Avena fatua [7]) | herbicidal activity ALOMY (Alopecurus myosuroides [11]) | herbicidal activity CYPES (Cyperus serotinus) | Herbicidal activity STEME (Stellaria media [13])
100%: herbicidal activity VIOTR (Viola tricolor [1]) | herbicidal activity SETVI (Setaria viridis [2]) | herbicidal activity ABUTH (Abutilon theophrasti [3]) | herbicidal activity ABUTH (Abutilon theophrasti [4]) | Herbicidal activity ECHCG (ECHCG) | herbicidal activity ALOMY (Alopecurus myosuroides [8]) | herbicidal activity AVEFA (Avena fatua [9]) | herbicidal activity VIOTR (Viola tricolor [10]) | Herbicidal activity STEME (Stellaria media [14]) | herbicidal activity SETVI (Setaria viridis [12])

CCn1nnnc1NC(=O)c1ccc(C(F)F)c(SC)c1C [Example 2-1]
100%: herbicidal activity MATIN (Matricaria inodora) | herbicidal activity VIOTR (Viola tricolor [1]) | herbicidal activity ABUTH (Abutilon theophrasti [4]) | herbicidal activity AMARE (Amaranthus retroflexus [5]) | herbicidal activity AMARE (Amaranthus retroflexus [6]) | herbicidal activity AVEFA (Avena fatua [7]) | herbicidal activity AVEFA (Avena fatua [9]) | Herbicidal activity PHBPU (Pharbitis purpureum) | herbicidal activity VIOTR (Viola tricolor [10]) | herbicidal activity SETVI (Setaria viridis [12]) | Herbicidal activity STEME (Stellaria media [13])
90%: herbicidal activity SETVI (Setaria viridis [2]) | herbicidal activity ABUTH (Abutilon theophrasti [3]) | Herbicidal activity ECHCG (ECHCG) | herbicidal activity ALOMY (Alopecurus myosuroides [8]) | herbicidal activity ALOMY (Alopecurus myosuroides [11])

CCCn1nnnc1NC(=O)c1ccc(C(F)F)c(S(C)(=O)=O)c1C [Example 3-3]
80%: herbicidal activity AMARE (Amaranthus retroflexus [6])
90%: herbicidal activity SETVI (Setaria viridis [2]) | herbicidal activity ABUTH (Abutilon theophrasti [3]) | herbicidal activity AVEFA (Avena fatua [7]) | Herbicidal activity ECHCG (ECHCG) | herbicidal activity ALOMY (Alopecurus myosuroides [8]) | Herbicidal activity PHBPU (Pharbitis purpureum) | herbicidal activity ALOMY (Alopecurus myosuroides [11]) | herbicidal activity CYPES (Cyperus serotinus) | Herbicidal activity STEME (Stellaria media [13])
100%: herbicidal activity MATIN (Matricaria inodora) | herbicidal activity VIOTR (Viola tricolor [1]) | herbicidal activity ABUTH (Abutilon theophrasti [4]) | herbicidal activity AMARE (Amaranthus retroflexus [5]) | herbicidal activity AVEFA (Avena fatua [9]) | herbicidal activity VIOTR (Viola tricolor [10]) | herbicidal activity SETVI (Setaria viridis [12])
